The supplement of paper PMC4862054

Assays:
Details in all cases: incubation time: 72 h
MDA-MB-453 [1] = assay: normalised response (% of control), CellTox Green; higher = less cell death (100 = DMSO, 0 = benzethonium chloride kill control)
Summary of the method: (§1)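 Plates were normalised with 0.1 % DMSO as 100 and a positive kill control as 0. Breast cancer cell lines in 20 µl suspension had been seeded into 384-well plates with compound at 5 concentrations in 10-fold steps over a compound-specific 10,000-fold range, incubated 72 h, and read for CellTox Green fluorescence (485/520 nm) followed by CellTiter-Glo luminescence. Each value is the normalised signal at a single concentration.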

MDA-MB-468 [2] = assay: as above
Summary of the method: as §1

MDA-MB-436 [3] = assay: as above
Summary of the method: as §1

CAL-120 [4] = assay: as above
Summary of the method: as §1

HDQ-P1 [5] = assay: as above
Summary of the method: as §1

HCC1143 [6] = assay: as above
Summary of the method: as §1

DU-4475 [7] = assay: as above
Summary of the method: as §1

MDA-MB-231 [8] = assay: as above
Summary of the method: as §1

BT-474 [9] = assay: as above
Summary of the method: as §1

CAL-85-1 [10] = assay: as above
Summary of the method: as §1

BT-549 [11] = assay: as above
Summary of the method: as §1

HCC1937 [12] = assay: as above
Summary of the method: as §1

CAL-148 [13] = assay: as above
Summary of the method: as §1

Hs578T [14] = assay: as above
Summary of the method: as §1

MCF-10A [15] = assay: as above
Summary of the method: as §1

HCC1599 [16] = assay: as above
Summary of the method: as §1

CAL-51 [17] = assay: as above
Summary of the method: as §1

MDA-MB-453 [18] = assay: normalised response (% of control), CellTiter-Glo; higher = more viable cells (100 = DMSO, 0 = benzethonium chloride kill control)
Summary of the method: as §1

MDA-MB-468 [19] = assay: as above
Summary of the method: as §1

MDA-MB-436 [20] = assay: as above
Summary of the method: as §1

CAL-120 [21] = assay: as above
Summary of the method: as §1

HDQ-P1 [22] = assay: as above
Summary of the method: as §1

HCC1143 [23] = assay: as above
Summary of the method: as §1

DU-4475 [24] = assay: as above
Summary of the method: as §1

MDA-MB-231 [25] = assay: as above
Summary of the method: as §1

SK-BR-3 = assay: as above
Summary of the method: as §1

BT-474 [26] = assay: as above
Summary of the method: as §1

CAL-85-1 [27] = assay: as above
Summary of the method: as §1

BT-549 [28] = assay: as above
Summary of the method: as §1

HCC1937 [29] = assay: as above
Summary of the method: as §1

MFM-223 [30] = assay: as above
Summary of the method: as §1

CAL-148 [31] = assay: as above
Summary of the method: as §1

Hs578T [32] = assay: as above
Summary of the method: as §1

MCF-10A [33] = assay: as above
Summary of the method: as §1

HCC1599 [34] = assay: as above
Summary of the method: as §1

CAL-51 [35] = assay: as above
Summary of the method: as §1

MFM-223 [36] = assay: normalised response (% of control), CellTox Green; higher = less cell death (100 = DMSO, 0 = benzethonium chloride kill control)
Summary of the method: as §1

Row | SMILES | normalised response (MDA-MB-453 [1]) [%] | normalised response (MDA-MB-468 [2]) [%] | normalised response (MDA-MB-436 [3]) [%] | normalised response (CAL-120 [4]) [%] | normalised response (HDQ-P1 [5]) [%] | normalised response (HCC1143 [6]) [%] | normalised response (DU-4475 [7]) [%] | normalised response (MDA-MB-231 [8]) [%] | normalised response (BT-474 [9]) [%] | normalised response (CAL-85-1 [10]) [%] | normalised response (BT-549 [11]) [%] | normalised response (HCC1937 [12]) [%] | normalised response (CAL-148 [13]) [%] | normalised response (Hs578T [14]) [%] | normalised response (MCF-10A [15]) [%] | normalised response (HCC1599 [16]) [%] | normalised response (CAL-51 [17]) [%] | normalised response (MDA-MB-453 [18]) [%] | normalised response (MDA-MB-468 [19]) [%] | normalised response (MDA-MB-436 [20]) [%] | normalised response (CAL-120 [21]) [%] | normalised response (HDQ-P1 [22]) [%] | normalised response (HCC1143 [23]) [%] | normalised response (DU-4475 [24]) [%] | normalised response (MDA-MB-231 [25]) [%] | normalised response (SK-BR-3) [%] | normalised response (BT-474 [26]) [%] | normalised response (CAL-85-1 [27]) [%] | normalised response (BT-549 [28]) [%] | normalised response (HCC1937 [29]) [%] | normalised response (MFM-223 [30]) [%] | normalised response (CAL-148 [31]) [%] | normalised response (Hs578T [32]) [%] | normalised response (MCF-10A [33]) [%] | normalised response (HCC1599 [34]) [%] | normalised response (CAL-51 [35]) [%] | normalised response (MFM-223 [36]) [%]
1 | COc1cc(O)c2c(c1)/C=C/C[C@H](O)[C@H](O)C(=O)/C=C\C[C@H](C)OC2=O [(5Z)-7-Oxozeaenol] (1000 nM) | 103 | 140 | 112 | 102 | 66.1 | 129 | 74.4 | 57.4 | 99 | 35.6 | 79.5 | -12.2 | 15.5 | 64.6 | 103 | 103 | 115 | 118 | 56.5 | 81.3 | 94.2 | 71.5 | 96.9 | 8.27 | 72 | 115 | 71.5 | 42.8 | 40.3 | 76.1 | 90.4 | 79.5 | 91.1 | 56.9 | 92 | 106 | –
2 | CNC(=O)c1ccc(N2C(=S)N(c3ccc(C#N)c(C(F)(F)F)c3)C(=O)C2(C)C)cc1F [Enzalutamide] (1000 nM) | 111 | 131 | 89.5 | 104 | 54.2 | 117 | 107 | 90.5 | 96 | 105 | 87 | – | 65.4 | 96.4 | 107 | 90.2 | 93.4 | 95.7 | 92.6 | 92.8 | 95.9 | 95.9 | 101 | 103 | 95.7 | 100 | 102 | 91.7 | 96.8 | 96.8 | 97.7 | 104 | 106 | 107 | 107 | 74.1 | –
3 | COC(=O)c1ccc2c(c1)NC(=O)/C2=C(\Nc1ccc(N(C)C(=O)CN2CCN(C)CC2)cc1)c1ccccc1 [Nintedanib] (1000 nM) | 103 | 162 | 107 | 101 | 96 | – | 98.5 | 102 | 97.9 | 107 | 111 | 80.7 | – | 94.1 | 105 | 98.1 | 105 | 96.2 | 96.8 | 99.4 | 85.2 | 69.1 | 98.8 | 87.6 | 92 | 86 | 101 | 97.2 | 83.5 | 89.4 | 59.2 | 94.6 | 93.4 | 59.3 | 98.9 | 83.2 | 89.4
4 | CNC(=O)c1ccc(N2C(=S)N(c3ccc(C#N)c(C(F)(F)F)c3)C(=O)C23CCC3)cc1F [RD162] (1000 nM) | 90.8 | 96.5 | 111 | 101 | 114 | – | 104 | 108 | 96.8 | 118 | 101 | 83.1 | 102 | 85.7 | 120 | 96 | 107 | 98.9 | 97.3 | 98.2 | 99 | 94.9 | 98 | 103 | 101 | 110 | 95.3 | 96.7 | 93.7 | 94.6 | 102 | 103 | 104 | 102 | 126 | 115 | –
5 | CO[C@H]1C[C@@H]2CC[C@@H](C)[C@@](O)(O2)C(=O)C(=O)N2CCCC[C@H]2C(=O)O[C@H]([C@H](C)C[C@@H]2CC[C@@H](OP(C)(C)=O)[C@H](OC)C2)CC(=O)[C@H](C)/C=C(\C)[C@@H](O)[C@@H](OC)C(=O)[C@H](C)C[C@H](C)/C=C/C=C/C=C/1C [Ridaforolimus] (10 nM) | 104 | 124 | 88.2 | 91.5 | – | 73 | 99.8 | 122 | 99.1 | 94.9 | 134 | 110 | 93.3 | 49.6 | 109 | 103 | 110 | 63.6 | 59.8 | 76 | 66.3 | 81.2 | 65 | 77 | 87.1 | 62.6 | 89.1 | 69.9 | 56 | 68.4 | 72.8 | 64.5 | 61.6 | 89.5 | 109 | 59.9 | 100
6 | S=P(N1CC1)(N1CC1)N1CC1 [Thio-TEPA] (5000 nM) | 101 | – | 94.6 | 100 | 96 | 62.1 | 99.2 | 109 | 100 | 95.8 | 109 | 109 | 102 | 85.2 | 109 | 93.5 | 29.6 | 109 | 100 | 97.4 | 96.5 | 99.5 | 96.1 | 102 | 96.2 | 105 | 94.4 | 97.2 | 91.7 | 96.4 | 105 | 93 | 108 | 100 | 112 | 68.9 | 98.8
7 | COc1cc2c(NC3CCN(C(C)C)CC3)nc(N3CCC(F)(F)CC3)nc2cc1OCCCN1CCCC1 [UNC0642] (10 nM) | – | – | – | – | – | – | – | – | – | – | – | – | – | – | – | – | – | 92 | 89 | 101 | 95.2 | 97.4 | 95.3 | 94.6 | 95.3 | 108 | 97.7 | 96.6 | 97.7 | 98.2 | 88.4 | 88.6 | 107 | 102 | 96.5 | 86.3 | –
8 | COc1cc2/c(=N/c3ccc(Br)cc3F)nc[nH]c2cc1OCC1CCN(C)CC1 [Vandetanib] (0.1 nM) | – | – | – | – | – | – | – | – | – | – | – | – | – | – | – | – | – | 93.6 | 93.2 | 80.6 | 90.8 | 93.2 | 88.7 | 91 | 97.3 | 78 | 89.3 | 90.3 | 105 | 88.2 | 85.2 | 76.8 | 98.6 | 72.8 | 82.4 | 115 | –
9 | COc1cc2/c(=N/c3ccc(Br)cc3F)nc[nH]c2cc1OCC1CCN(C)CC1 [Vandetanib] (100 nM) | 90.5 | 67.6 | 84.2 | 83 | – | 85.6 | 92 | 85.4 | 98 | 98.6 | 102 | – | 88.6 | 92 | 103 | 87 | 70.7 | 88 | 83.5 | 91.2 | 94.4 | 83 | 86.2 | 90.1 | 89.2 | 77.7 | 84.7 | 99.3 | 89 | 90.6 | 82.5 | 96.5 | 94.1 | 57.3 | 102 | 83.3 | 98.8
10 | COCC[n+]1c2c(n(Cc3cnccn3)c1C)C(=O)c1ccccc1C2=O [YM155] (10 nM) | – | – | – | – | – | – | – | – | – | – | – | – | – | – | – | – | – | 66.2 | 11.8 | 26.6 | 7.43 | 79.8 | 56.4 | 101 | 37.6 | 69.8 | 25.6 | 31.8 | 91.5 | 55.7 | 75.3 | 85 | 95.2 | 88.1 | 43.3 | 77.8 | –
